Tested on: Rabies virus
Type: cell-based

ranpirnase
activity against rabies (SI, FIG. 1): extraordinarily active

Source: patent US9919034B2, “Methods of treating and prophylactically protecting mammalian patients infected by viruses classified in Baltimore group V” (priority 2014, dated 2018)
